In patent publication US5521193A, “Benzimidazole compounds” (G. D. Searle & Co., priority 1995, dated 1996):

Legend:
5-HT4 receptor = target: T1, 5-HT4 receptor (Rattus norvegicus, UniProt Q62758); test: biochemical; conditions: carbachol (3 μM)-contracted rat esophagus TMM; 37° C.; tissues from 5 rats; read-out: 5-HT4 Agonism (Rat TMM) In Vitro Assay: EC50 Values
T1 construct: One 2 cm segment of intrathoracic esophagus proximal to the diaphragm was removed from male rats; from tissue; host or cells: rat intrathoracic oesophagus, inner tunica muscularis mucosae
Method: (§1) 5-HT4 agonist activity was determined in the in vitro rat tunice muscularis mucosae (TMM) assay. (Baxter et el., Naunyn Schmied Arch. Pharmacol, 1991, 343,439). The 5-HT4 agonist or antagonist activity and/or 5-HT3 antagonist activity of the compounds of the invention herein, can be determined by the assays as described herein, without undue experimention.
Agonist activity was determined utilizing relaxation of carbachol-contracted rat tunica muscularis mucosae. One 2 cm segment of intrathoracic esophagus proximal to the diaphragm was removed from male rats, weighing approximately 300 gm, and the outer muscle layers removed. The inner tunica muscularis mucosa was mounted under 0.2-0.3 g of tension in a tissue bath containing oxygenated Tyrode's solution at 37° C. […] Following a 30 min equilibrium period, tissues were isometrically contracted with carbachol (3 μM) to obtain a tonic contraction. A stable plateau was obtained within 20 min when test compound was added cumulatively to relax the muscle strip. EC50 values were obtained for each agonist in tissues from 5 rats.

5-HT3 receptor = target: T2, 5-HT3 receptor (Rattus norvegicus, UniProt P35563); test: Serotonin (5-HT3) radioligand binding, [3H]-GR65630, rat brain cortex membranes; conditions: for Ki: [3H]-GR65630 0.2 nM, 60 min, 22° C.
T2 construct: Brain cortices were obtained from male rats and a membrane fraction prepared by standard techniques; from tissue; host or cells: rat brain cortex membranes
T2 sequence (P35563 24-483): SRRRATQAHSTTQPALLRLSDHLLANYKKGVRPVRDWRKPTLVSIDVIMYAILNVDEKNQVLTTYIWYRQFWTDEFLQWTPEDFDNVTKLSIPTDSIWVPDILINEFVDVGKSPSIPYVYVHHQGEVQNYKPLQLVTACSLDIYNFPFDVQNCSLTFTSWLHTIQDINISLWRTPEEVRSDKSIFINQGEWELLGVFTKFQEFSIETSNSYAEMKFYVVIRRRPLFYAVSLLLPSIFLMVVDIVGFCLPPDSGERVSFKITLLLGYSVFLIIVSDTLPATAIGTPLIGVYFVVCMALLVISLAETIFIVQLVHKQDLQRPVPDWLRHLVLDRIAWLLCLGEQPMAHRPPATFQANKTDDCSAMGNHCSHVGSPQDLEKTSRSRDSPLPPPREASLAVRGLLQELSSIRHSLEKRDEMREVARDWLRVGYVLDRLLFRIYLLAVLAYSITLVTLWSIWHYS
Method: GR65630 binds to the 5-HT3 receptor. Brain cortices were obtained from male rats and a membrane fraction prepared by standard techniques. 0.04 mg of membrane prep was incubated with 0.2 nM […] for 60 minutes at 22° C. […] Membranes were filtered and washed times and the filters were counted to determine [3H]-GR65630 specifically bound. Kilpatrick G. J., Jones B. J. and Tyers M. B. Identification and distribution of 5-HT3 receptors in rat brain using radioligand binding assay. Nature, 330 : 746-748, 1987.

5-HT3 = test: Bezold-Jarisch Reflex (inhibition of 5-HT-induced bradycardia in anesthetized mice); type: in vivo; conditions: i.p., 30 min before 5-HT 0.25 mg/kg i.v.; >50 percent reduction in bradycardic response vs vehicle considered significant; pentobarbital anesthetized mice
Method: as §1
The compound to be evaluated was administered i.p. (mg/kg) to a group of 3 mice. […] A greater than 50 percent (>50) reduction in the bradycardic response relative to vehicle-treated control mice was considered significant.
This method has been described by Saxena, P. R. and Lawang, A., Arch. Int. Pharmacodyn., 277:235-252, 1985.
The assay results for the compounds of the present invention and their Minimum Effective Dose (MED) and the reference compounds and their MEDs are recorded in Table I.

T1 sequence (Q62758 whole entry): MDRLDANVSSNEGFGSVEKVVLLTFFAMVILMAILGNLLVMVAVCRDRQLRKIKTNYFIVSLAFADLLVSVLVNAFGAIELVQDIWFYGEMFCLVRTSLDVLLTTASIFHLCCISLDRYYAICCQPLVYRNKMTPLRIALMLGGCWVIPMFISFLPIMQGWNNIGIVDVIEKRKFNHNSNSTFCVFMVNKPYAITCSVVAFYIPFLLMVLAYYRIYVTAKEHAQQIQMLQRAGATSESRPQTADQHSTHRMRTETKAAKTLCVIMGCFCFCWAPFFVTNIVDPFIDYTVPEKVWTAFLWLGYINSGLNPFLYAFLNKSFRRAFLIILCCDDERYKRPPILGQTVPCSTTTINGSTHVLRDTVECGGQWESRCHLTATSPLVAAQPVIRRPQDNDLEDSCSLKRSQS

SMILES | EC50 (5-HT4 receptor) [nM] | Ki (5-HT3 receptor) [nM] | further results
CC(C)n1c(=O)n(C(=O)NCCC23CCCN2CCC3)c2cc(Cl)ccc21 [Example 12A, 6-Chloro-N-[2-(hexahydro-7aH-pyrrolizin-7a-yl)ethyl]2,3-dihydro-3-(1-methylethyl)-2-oxo-1H-benzimidazole 1-carboxamide] | 1360 |  | 
CCn1c(=O)n(C(=O)NC2C3CC4CC2CN(C4)C3)c2ccc(Cl)cc21 (centres unmarked) [Example 22, N-(1-azatricyclo[3.3.1.1^3,7]decan-4-yl)-5-chloro-3-ethyl-2,3-dihydro 2-oxo-1H-benzimidazole-1-carboxamide] |  | 360 | 
CCn1c(=O)n(C(=O)NC2C3CC4CC2CN(C4)C3)c2cc(Cl)ccc21 (centres unmarked) [Example 21, N-(1-azatricyclo[3.3.1.1^3,7]decan-4-yl)-6-chloro-3-ethyl-2,3-dihydro 2-oxo-1H-benzimidazole-1-carboxamide] | 2140 | 55 | 
CCn1c(=O)n(C(=O)NC2C3CC4CC2CN(C4)C3)c2cc(Cl)ccc21 (centres unmarked) [Example 18, N-(1-azatricyclo[3.3.1.1^3,7]decan-4-yl)-6-chloro-3-ethyl-2,3-dihydro 2-oxo-1H-benzimidazole-1-carboxamide] |  | 1200 | 
CCN(CC)CCNC(=O)c1cc(Cl)c(N)cc1OC [metoclopramide] |  |  | Minimum Effective Dose (MED) (5-HT3): 5 mg/kg
CC(C)n1c(=O)n(C(=O)NCC23CC4CN(CC4C2)C3)c2ccccc21 [Example 33, N-[(Hexahydro-2,5β-methano-1H-3aα,6aα-cyclopenta-[c]pyrrol-5-yl)methyl]-2,3-dihydro 3-(1-methylethyl)-2-oxo-1H-benzimidazole-1-carboxamide] | 337 |  | 
CC(C)n1c(=O)n(C(=O)NC[C@H]2CCN3CCC[C@H]23)c2ccccc21 (relative stereo) [Example 23, cis-N-[(hexahydro-1H-pyrrolizin-1-yl)methyl]-2,3-dihydro-3-(1-methylethyl) 2-oxo-1H-benzimidazole-1-carboxamide] |  |  | Minimum Effective Dose (MED) (5-HT3): 1 mg/kg
CCn1c(=O)n(C(=O)NC2C3CC4CC2CN(C4)C3)c2ccccc21 (centres unmarked) [Example 15, N-(1-azatricyclo[3.3.1.1^3,7]decan-4-yl)-3-ethyl-2,3-dihydro-2-oxo 1H-benzimidazole-1-carboxamide] | 4580 | 92 | 
CC(C)n1c(=O)n(C(=O)NCC2C3CC4CC2N(C4)C3)c2ccccc21 (stereo not drawn) [Example 29, N-[(Hexahydro-2β,6β-methano-1H, 7aα-pyrrolizin-1β-yl)methyl]2,3-dihydro-3-(1-methylethyl)-2-oxo-1H-benzimidazole-1-carboxamide] | 1630 |  | 
CC(C)n1c(=O)n(C(=O)N[C@H]2C[C@@H]3CN(C)C[C@@H]3C2)c2ccccc21 [Example 14A] | 874 |  | 
CC(C)n1c(=O)n(C(=O)NCCC23CCCN2CCC3)c2cc(Cl)c(N)cc21 [Example 12B, 6-Chloro-5-amino-N-[2-(hexahydro-7aH-pyrrolizin-7a-yl)ethyl]-2,3-dihydro-3-(1-methylethyl)-2-oxo-1H-benzimidazole-1-carboxamide] | 374 |  | 
CC(C)n1c(=O)n(C(=O)NCC2C3CC4CC2CN(C4)C3)c2ccccc21 (centres unmarked) [Example 19B, N-(1-azatricyclo[3.3.1.1.^3,7]decan-4-ylmethyl)-2,3-dihydro-3-(1-methylethyl) 2-oxo-1H-benzimidazole-1-carboxamide] | 926 |  | 
O=c1[nH]c2ccccc2n1CCCN1CCC(n2c(=O)[nH]c3cc(Cl)ccc32)CC1 [domperidone] |  |  | Minimum Effective Dose (MED) (5-HT3): > 10 mg/kg
CN1C2CCCC1CC(NC(=O)c1nn(C)c3ccccc13)C2 (centres unmarked) [BRL-43694] |  |  | Minimum Effective Dose (MED) (5-HT3): 0.05 mg/kg
CN1[C@@H]2C[C@@H](OC(=O)[C@H](CO)c3ccccc3)C[C@H]1[C@@H]1O[C@@H]12 [scopolamine] |  |  | Minimum Effective Dose (MED) (5-HT3): 2.5 mg/kg
CCn1c(=O)n(C(=O)NC2C3CC4CC2CN(C4)C3)c2ccccc21 (centres unmarked) [Example 20, N-(1-azatricyclo[3.3.1.1^3,7]decan-4-yl)-3-ethyl-2,3-dihydro-2-oxo-1H-benzimidazole 1-carboxamide] | 10000 | 19 | 
CCn1c(=O)n(C(=O)NC2C3CC4CC2CN(C4)C3)c2ccc(Cl)cc21 (centres unmarked) [Example 19, N-(1-azatricyclo[3.3.1.1^3,7]decan-4-yl)-5-chloro-3-ethyl-2,3-dihydro 2-oxo-1H-benzimidazole-1-carboxamide] |  | 1200 | 
Cc1nc[nH]c1CCC(=O)c1cn(C)c2ccccc12 [GR65630, reference compound] |  |  | Bmax (5-HT3 receptor; [3H]-GR65630, rat brain cortex membranes): 154 fmol/mg protein
CC(C)n1c(=O)n(C(=O)NCC2C3CC4CC2CN4C3)c2ccccc21 (centres unmarked) [Example 32, N-(Hexahydro-2,6-methano-1H-pyrrolizin-8-ylmethyl]-2,3-dihydro-3(1-methylethyl)-2-oxo-1H-benzimidazole-1-carboxamide] | 1320 |  | 
CC(C)n1c(=O)n(C(=O)NC[C@H]2CN3CC[C@H]2C3)c2ccccc21 (relative stereo) [Example 36, N-[(exo-1-azabicyclo[2.2.1]heptan-3-yl)methyl-]-2,3-dihydro-3-(1-methylethyl) 2-oxo-1H-benzimidazole-1-carboxamide] | 302 |  | 
CC(C)n1c(=O)n(C(=O)NCC23CCCN2CCC3)c2ccccc21 [Example 14, N-[(hexahydro-7aH-pyrrolizin-7a-yl)methyl]-2,3-dihydro-3-(1-methylethyl) 2-oxo-1H-benzimidazole-1-carboxamide] | 3830 | 36 | 
CC(C)n1c(=O)n(C(=O)N[C@@H]2[C@@H]3C[C@H]4CN(C3)C[C@H]42)c2ccccc21 (relative stereo) [Example 24, N-(hexahydro-1H-2,5β-methano-3aα,6aα-cyclopenta [c]pyrrol-4α-yl)-2,3-dihydro-3-(1-methylethyl)-2-oxo 1H-benzimidazole-1-carboxamide] | 1510 | 2 | 
CC(C)n1c(=O)n(C(=O)NC2C3CC4CC2CN(C4)C3)c2cc(Cl)ccc21 (centres unmarked) [Example 16, N-(1-azatricyclo[3.3.1.1^3,7]decan-4-yl)-6-chloro-2,3-dihydro-3-(1-methylethyl) 2-oxo-1H-benzimidazole-1-carboxamide] | 10000 | 1200 | 
CC(C)n1c(=O)n(C(=O)NC[C@@H]2CN3CC[C@H]2C3)c2ccccc21 (relative stereo) [Example 35, N-[(endo-1-azabicyclo[2.2.1]heptan-3-yl)methyl-]-2,3-dihydro-3-(1-methylethyl) -2-oxo-1H-benzimidazole-1-carboxamide] | 294 |  | 
CC(C)n1c(=O)n(C(=O)NCC2C3CC4CC2N(C4)C3)c2ccccc21 (stereo not drawn) [Example 30, N-[(Hexahydro-2β,6β-methano-1H, 7aα-pyrrolizin-1α-yl)methyl]2,3-dihydro-3-(1-methylethyl)-2-oxo-1H-benzimidazole-1-carboxamide] | 219 |  | 
CC(C)n1c(=O)n(C(=O)NCC2C3CC4CC2CN(C4)C3)c2cc(Cl)ccc21 (centres unmarked) [Example 22C, N-(1-azatricyclo[3.3.1.1^3,7]decan-4-ylmethyl)-6-chloro-2,3-dihydro-3-(1-methylethyl) 2-oxo-1H-benzimidazole-1-carboxamide] | 722 |  | 
CC(C)n1c(=O)n(C(=O)NCC23CC4CN(CC4C2)C3)c2cc(Cl)ccc21 [Example 34, N-[(Hexahydro-2,5β-methano-1H-3aα,6aα-cyclopenta[c]-pyrrol-5-yl)methyl]-6-chloro-2,3-dihydro-3-(1-methylethyl)-2-oxo-1-benzimidazole-1-carboxamide] | 248 |  | 
CC(C)n1c(=O)n(C(=O)NCCC23CCCN2CCC3)c2ccc(Cl)cc21 [Example 12, 5-chloro-N-[2-(hexahydro-7aH-pyrrolizin-7a-yl)ethyl]2,3-dihydro-3-(1-methylethyl)-2-oxo-1H-benzimidazole 1-carboxamide] | 9470 | 2800 | 
